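Step 1: Grow cells in 96-well plates. Step 2: Expose to compound for 48 hours at 5 concentrations. Step 3: Interpolate endpoints linearly; if unreached, use highest concentration. GI50 is the concentration that inhibits growth by half. TGI denotes the concentration required for complete inhibition of growth.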
Tested on: MDA-MB-468 breast
Experiment: NCI-60 cell line screen, 48 h

Compared with CN(C)c1ccc(/C=C\c2ccnc3ccccc23)cc1, O=C1NC(=NCCc2ccc(F)cc2)S/C1=C\c1ccc2ncccc2c1 is higher in GI50: 233 nM for the first, over 20900 nM for the second.

COc1cc(/C=C/C(=O)c2cccc(-n3cc(-c4cc(OC)c(OC)c(OC)c4)[nH]c3=O)c2)cc(OC)c1OC and COc1cc(-c2cc(/C=C/C(=O)c3ccc(F)c(F)c3)[nH]n2)cc(OC)c1OC are within 1.5-fold of each other in GI50: 1570 nM for the first, 2270 nM for the second.

Going from Clc1nccc2c(-c3csc(-c4c[nH]c5ccc(Br)cc45)n3)c[nH]c12 to O=C1Nc2ccc(Br)cc2C12CC(c1ccccc1)=NN2 (stereo unspecified), the GI50 rises from 1180 nM to 3040 nM (2.6-fold).

First: CN1CCN(CC(=O)N(C)c2ccc(N=C(c3ccccc3)c3c(O)[nH]c4ccc(C#N)cc34)cc2)CC1
Second: NCCN1CCN(c2nc(-c3ccccc3)nc3nc(-c4ccccc4)oc23)CC1
The GI50 of the first is 6.6-fold higher: 10700 nM for the first, 1630 nM for the second.

First: COc1cnc2c(c1)C(=O)c1c-2n(CCCNC2=NCCS2)c(=O)c2cc(F)ccc12
Second: O=C1CC(c2c[nH]c3ccc(F)cc23)C(=O)N1 (stereo unspecified)
The GI50 of the first is lower: 190 nM for the first, over 100000 nM for the second.

Compared with Oc1ccc(Cl)cc1C(c1cc(Cl)ccc1O)C(Cl)(Cl)Cl, NS(=O)(=O)c1ccc(Nc2cc(-c3ccc(O)c(F)c3)[nH]n2)cc1 is 4.1-fold higher in GI50: 2580 nM for the first, 10500 nM for the second.

COc1cc(/C=C2\C(=O)N(Cc3ccc(Cl)cc3)c3ccccc32)cc(OC)c1OC and COc1cc2oc(-c3cccc(C(=O)Nc4ccc(Cl)cc4)c3)cc(=O)c2c(OC)c1OC are within 1.5-fold of each other in GI50: 2660 nM for the first, 3640 nM for the second.

Going from COc1ccc(C(O)c2cc3c(N)c(C(=O)Nc4ccc(Cl)cc4)sc3nc2C)cc1 (stereo unspecified) to COc1cc2cc(Oc3ccc(NC(=O)Nc4cc(C(F)(F)F)cc(C(F)(F)F)c4)cc3)c(C)nc2cc1OCCN1CCOCC1, the GI50 falls from 1940 nM to 1220 nM (1.6-fold).

Compared with CC(=O)Nc1ccc(C(=O)CCl)cc1, O=C(Nc1ccc(Oc2ccc(F)cc2)cc1)[C@@H]1C[C@@H](Cc2ccc(F)cc2)CN1C(=O)Cn1ccnn1 is 2.5-fold higher in GI50: 1810 nM for the first, 4500 nM for the second.

First: CC(C)=CCc1cc2c(cc1O)C1=C(C(=O)C3=C(C1=O)S(=O)(=O)CCN3)C(C=C(C)C)O2 (stereo unspecified)
Second: O=C1NC(=S)S/C1=C\c1cn(-c2ccccc2)nc1-c1ccccc1
The GI50 of the first is 13-fold lower: 540 nM for the first, 6830 nM for the second.

First: CCCCN(CCCC)C(=O)[C@H](CC)[C@@H]1CC[C@@H](C)[C@@H]([C@H](C)[C@@H](O)[C@@H](C)C(=O)[C@H](CC)C2O[C@]3(C=C[C@@H](O)[C@]4(CC[C@@](C)([C@H]5CC[C@](O)(CC)[C@H](C)O5)O4)O3)[C@H](C)C[C@@H]2C)O1 (stereo partly specified)
Second: c1cc(N[C@@H]2CCNC2)nc(-c2cnc3ccc(-c4cn[nH]c4)cn23)c1
The GI50 of the first is 1.5-fold higher: 1470 nM for the first, 957 nM for the second.

c1ccc(-c2oc(-c3ccccc3)c(CN3CCCCC3)c2CN2CCCCC2)cc1 gave a GI50 of 1450 nM.

First: CN(C)c1ccc(/C=C\c2ccnc3ccccc23)cc1
Second: O=C1NC(=NCCc2ccc(F)cc2)S/C1=C\c1ccc2ncccc2c1
The TGI of the first is lower: 0.564 µM for the first, over 25 µM for the second.

First: COc1cc(/C=C/C(=O)c2cccc(-n3cc(-c4cc(OC)c(OC)c(OC)c4)[nH]c3=O)c2)cc(OC)c1OC
Second: COc1cc(-c2cc(/C=C/C(=O)c3ccc(F)c(F)c3)[nH]n2)cc(OC)c1OC
The TGI of the first is 2.9-fold lower: 3.25 µM for the first, 9.47 µM for the second.

Compared with Clc1nccc2c(-c3csc(-c4c[nH]c5ccc(Br)cc45)n3)c[nH]c12, O=C1Nc2ccc(Br)cc2C12CC(c1ccccc1)=NN2 (stereo unspecified) is 11-fold higher in TGI: 3.81 µM for the first, 41.8 µM for the second.

Going from CN1CCN(CC(=O)N(C)c2ccc(N=C(c3ccccc3)c3c(O)[nH]c4ccc(C#N)cc34)cc2)CC1 to NCCN1CCN(c2nc(-c3ccccc3)nc3nc(-c4ccccc4)oc23)CC1, the TGI falls from 24.1 µM to 3.2 µM (7.5-fold).

First: COc1cnc2c(c1)C(=O)c1c-2n(CCCNC2=NCCS2)c(=O)c2cc(F)ccc12
Second: O=C1CC(c2c[nH]c3ccc(F)cc23)C(=O)N1 (stereo unspecified)
The TGI of the first is lower: 2.02 µM for the first, over 100 µM for the second.

First: Oc1ccc(Cl)cc1C(c1cc(Cl)ccc1O)C(Cl)(Cl)Cl
Second: NS(=O)(=O)c1ccc(Nc2cc(-c3ccc(O)c(F)c3)[nH]n2)cc1
The TGI of the first is lower: 8.11 µM for the first, over 25 µM for the second.

First: COc1cc(/C=C2\C(=O)N(Cc3ccc(Cl)cc3)c3ccccc32)cc(OC)c1OC
Second: COc1cc2oc(-c3cccc(C(=O)Nc4ccc(Cl)cc4)c3)cc(=O)c2c(OC)c1OC
The TGI of the first is 11-fold lower: 8.06 µM for the first, 85.7 µM for the second.

First: COc1ccc(C(O)c2cc3c(N)c(C(=O)Nc4ccc(Cl)cc4)sc3nc2C)cc1 (stereo unspecified)
Second: COc1cc2cc(Oc3ccc(NC(=O)Nc4cc(C(F)(F)F)cc(C(F)(F)F)c4)cc3)c(C)nc2cc1OCCN1CCOCC1
The TGI of the first is 2.4-fold higher: 8.87 µM for the first, 3.76 µM for the second.

Compared with CC(=O)Nc1ccc(C(=O)CCl)cc1, O=C(Nc1ccc(Oc2ccc(F)cc2)cc1)[C@@H]1C[C@@H](Cc2ccc(F)cc2)CN1C(=O)Cn1ccnn1 is 6.4-fold higher in TGI: 4.52 µM for the first, 29 µM for the second.

First: CC(C)=CCc1cc2c(cc1O)C1=C(C(=O)C3=C(C1=O)S(=O)(=O)CCN3)C(C=C(C)C)O2 (stereo unspecified)
Second: O=C1NC(=S)S/C1=C\c1cn(-c2ccccc2)nc1-c1ccccc1
The TGI of the first is 15-fold lower: 2.59 µM for the first, 39.9 µM for the second.

Compared with CCCCN(CCCC)C(=O)[C@H](CC)[C@@H]1CC[C@@H](C)[C@@H]([C@H](C)[C@@H](O)[C@@H](C)C(=O)[C@H](CC)C2O[C@]3(C=C[C@@H](O)[C@]4(CC[C@@](C)([C@H]5CC[C@](O)(CC)[C@H](C)O5)O4)O3)[C@H](C)C[C@@H]2C)O1 (stereo partly specified), c1cc(N[C@@H]2CCNC2)nc(-c2cnc3ccc(-c4cn[nH]c4)cn23)c1 is 1.5-fold lower in TGI: 3.89 µM for the first, 2.52 µM for the second.

c1ccc(-c2oc(-c3ccccc3)c(CN3CCCCC3)c2CN2CCCCC2)cc1 showed a TGI of 3.98 µM.

— PubChem BioAssay (NCI)
